In patent US11414413B2, “Heterocyclic compound as JAK inhibitor, and salts and therapeutic use thereof” (Suzhou Longbiotech Pharmaceuticals Co., Ltd., priority 2016, dated 2022):

Experiments:
JAK2 = JAK2 (Homo sapiens (Human), UniProt O60674); assay: Inhibition of JAK2, luminescence kinase assay (ADP-Glo); assay type: biochemical; conditions: purified recombinant JAK2
Description: The study of the effect of compounds on the activity of purified recombinant JAK was performed by studying the inhibitory activity of the compounds on JAK from the enzymatic level. The experimental principle is to use a luminescence kinase assay to detect the ADP content produced by the reaction of JAK with the substrate Poly (4:1 Glu, Tyr) peptide: after ADP is converted to ATP, ATP can act as a substrate for the Ultra-Glo luciferase catalytic reaction, producing an optical signal. The luminescence signal is positively correlated with the amount of ADP and kinase activity. Therefore, the inhibitory effect of the compounds on the recombinant JAK was determined by observing the luminescence signal produced by the reaction of JAK and the substrate, and was expressed by IC50.
Experimental method: 10 different concentrations of compounds were incubated with JAK1, JAK2 and JAK3, respectively, for 60 minutes at 37° C. The substrate and ATP were then added, mixed, and reacted at 37° C. for 50 minutes. 25 μl of ADP-Glo™ was added and mixed for 2 minutes. The reaction was carried out for 50 minutes at room temperature. Further, 50 μl of the detection reagent was added and mixed for 2 minutes, and incubated at room temperature for 50 minutes, and detected by a chemiluminometer.

Wistar rats = assay: Effect of repeated administration on hematological parameters in rats; assay type: in vivo, rat
Description: 48 healthy Wistar rats were taken, half ♀ and half ♂. According to the body weight, they were randomly divided into the control group (Veh). The compound of Example 3 was administered by gavage at doses of 1.5 mg·kg^−1·d^−1 and 4.5 mg·kg^−1·d^−1. Ruxolitinib was administered by gavage at dose of 4.5 mg·kg^−1·d^−1. There were 12 rats in each group, half ♀ and half ♂. The drug was administered by gavage once a day for 4 weeks, and the hematological parameters were examined 1 day and 2 days after the last administration.

[1] = gavage 4.5 mg·kg−1·d−1 once a day for 4 weeks

JAK2, sequence (O60674 whole entry): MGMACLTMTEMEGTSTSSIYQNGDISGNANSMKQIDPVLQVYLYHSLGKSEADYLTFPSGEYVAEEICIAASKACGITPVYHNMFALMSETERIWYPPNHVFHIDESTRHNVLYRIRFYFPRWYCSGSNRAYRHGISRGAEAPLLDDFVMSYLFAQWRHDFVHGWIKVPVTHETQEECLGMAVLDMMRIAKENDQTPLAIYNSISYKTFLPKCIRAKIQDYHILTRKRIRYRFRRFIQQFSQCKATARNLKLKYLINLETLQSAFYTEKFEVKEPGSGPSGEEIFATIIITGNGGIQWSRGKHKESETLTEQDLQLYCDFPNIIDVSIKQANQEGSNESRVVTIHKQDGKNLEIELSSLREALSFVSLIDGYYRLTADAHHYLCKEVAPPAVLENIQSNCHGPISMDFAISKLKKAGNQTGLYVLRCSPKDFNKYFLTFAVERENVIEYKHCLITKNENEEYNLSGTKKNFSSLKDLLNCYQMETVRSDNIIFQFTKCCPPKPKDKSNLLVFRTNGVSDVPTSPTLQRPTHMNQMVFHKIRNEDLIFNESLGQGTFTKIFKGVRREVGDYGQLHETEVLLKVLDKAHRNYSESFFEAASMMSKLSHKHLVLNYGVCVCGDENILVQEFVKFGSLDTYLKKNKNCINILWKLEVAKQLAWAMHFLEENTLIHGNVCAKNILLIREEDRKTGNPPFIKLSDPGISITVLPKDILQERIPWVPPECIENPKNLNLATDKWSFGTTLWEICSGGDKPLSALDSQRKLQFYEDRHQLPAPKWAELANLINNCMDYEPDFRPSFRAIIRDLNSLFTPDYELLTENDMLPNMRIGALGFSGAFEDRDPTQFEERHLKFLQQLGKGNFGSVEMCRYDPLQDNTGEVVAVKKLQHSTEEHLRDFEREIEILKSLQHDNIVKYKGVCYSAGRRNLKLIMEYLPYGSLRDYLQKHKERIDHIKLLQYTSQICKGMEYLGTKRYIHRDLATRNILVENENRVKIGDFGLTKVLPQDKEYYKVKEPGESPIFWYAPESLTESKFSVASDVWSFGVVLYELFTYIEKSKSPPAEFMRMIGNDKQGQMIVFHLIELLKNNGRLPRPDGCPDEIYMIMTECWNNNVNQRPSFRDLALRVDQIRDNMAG

IC50 (JAK2)	hematological parameter WBC compared with the control group (Veh) (Wistar rats; gavage 1.5 mg·kg−1·d−1 once a day for 4 weeks)	hematological parameter WBC compared with the control group (Veh) (Wistar rats; [1])	Compound
20 to 50 nM	no significant decrease	no significant decrease	N#CCC1(n2cc(-c3ncnc4[nH]ccc34)cn2)CCS(=O)(=O)CC1 [Example 3, 2-(4-(4-(7H-pyrrolo[2,3-d]pyrimidin-4-yl)-1H-pyrazol-1-yl)-1,1-dioxotetrahydro-2H-thiopyran-4-yl)acetonitrile]
–	–	significant decrease	N#CC[C@H](C1CCCC1)n1cc(-c2ncnc3[nH]ccc23)cn1 [Ruxolitinib, reference compound]
